This passage reports IC50, MIC and solubility results from PMC9329268 (Angewandte Chemie (International ed. in English), 2022).

The structures appear in SMILES notation. Values after ≈ are worked out from the molar mass of the structure shown.

The target of series [1] is T1, human dolichyl-phosphate N-acetylglucosaminephosphotransferase 1 (DPAGT1) (Homo sapiens, UniProt Q9H3H5).
T1 sequence (Q9H3H5 1-408): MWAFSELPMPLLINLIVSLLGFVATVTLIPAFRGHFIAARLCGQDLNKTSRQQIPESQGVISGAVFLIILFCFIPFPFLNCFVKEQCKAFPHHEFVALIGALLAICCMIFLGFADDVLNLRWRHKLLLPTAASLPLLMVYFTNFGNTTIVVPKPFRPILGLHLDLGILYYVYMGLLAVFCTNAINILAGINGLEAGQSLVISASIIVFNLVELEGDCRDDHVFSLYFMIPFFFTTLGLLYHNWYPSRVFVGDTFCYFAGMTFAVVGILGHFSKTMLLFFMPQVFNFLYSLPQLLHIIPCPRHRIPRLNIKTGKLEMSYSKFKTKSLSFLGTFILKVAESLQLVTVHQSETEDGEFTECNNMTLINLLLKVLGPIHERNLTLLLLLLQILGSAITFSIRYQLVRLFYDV
Format: biochemical. To be noted: read-out: IC50 DPAGT1; Human enzyme; n = 3.

In another series the target is T2, AglH (Methanocaldococcus jannaschii, UniProt Q58513).
T2 sequence (Q58513 1-301): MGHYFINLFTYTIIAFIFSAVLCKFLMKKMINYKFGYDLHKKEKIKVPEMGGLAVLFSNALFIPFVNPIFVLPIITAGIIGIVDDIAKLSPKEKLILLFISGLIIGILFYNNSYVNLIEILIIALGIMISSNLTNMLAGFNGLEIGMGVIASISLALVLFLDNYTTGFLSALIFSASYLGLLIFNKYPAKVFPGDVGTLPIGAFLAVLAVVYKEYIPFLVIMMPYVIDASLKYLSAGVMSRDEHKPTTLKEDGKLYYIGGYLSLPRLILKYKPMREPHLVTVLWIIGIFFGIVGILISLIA
The format is biochemical. To be noted: read-out: IC50 AglH; Methanococcus jannaschii enzyme; n = 3.

Series [2] deals with healthy (normal) and cancer cell lines. To be noted: read-out: IC50 (rapid cytotoxic activity); within 24 h; ref 4a; cited from earlier work.
The test system of series [3] is Streptococcus salivarius (ATCC7752). Put plainly: Antibacterial activity. The format is cell-based.
A further series concerns MraY. The conditions noted are these: read-out: IC50 MraY.
The nature of a further series: Water-solubility. The format is physicochemical.
Series [4] deals with Mycobacterium smegmatis (ATCC607). Put plainly: Antibacterial activity. Format: cell-based.
For series [5], the system named is Mycobacterium tuberculosis (H37Rv). Briefly: Antibacterial activity. The format is cell-based.
Series [6] concerns Bacillus cereus (ATCC1479). Briefly: Antibacterial activity. Format: cell-based.

For `CC(=O)N[C@H]1[C@@H](O[C@@H]2O[C@H](C[C@@H](O)[C@H]3O[C@@H](n4ccc(=O)[nH]c4=O)[C@H](O)[C@@H]3O)[C@H](O)[C@H](O)[C@H]2NC(=O)/C=C/CCCCCCCCCC(C)C)O[C@H](CO)[C@@H](O)[C@@H]1O` [TN-V (1, synthetic), tunicamycin V], the concentration for half-maximal inhibition (IC50) in [1] was 1500 nM; at AglH, 13000 nM; in [2], 500 to 2500 nM; in the series on MraY, 2500 nM. The MIC in [3] is 25.0 µg/mL (≈ 30.1 µM); in series [4] it was 6.3 µg/mL (≈ 7.58 µM); in series [5] it was 6.3 µg/mL (≈ 7.58 µM); in series [6], 0.4 µg/mL (≈ 0.481 µM). Besides, in “Water-solubility”, the solubility was less than 200 µg/mL.
On to `CC(=O)N[C@H]1[C@@H](O[C@@H]2O[C@H](C[C@@H](O)[C@H]3O[C@@H](n4ccc(=O)[nH]c4=O)[C@H](O)[C@@H]3O)[C@H](O)[C@H](O)[C@H]2NC(=O)/C=C/CCCCCCCCCC(C)C)O[C@H](CO)[C@@H](O)[C@@H]1O` [TN-V (natural), tunicamycin V, reference compound], for which the values for the IC50 (in series [1]; on AglH; in the series with MraY) were 1500 nM, 13200 nM and 2900 nM, respectively.
